Results: ChEMBL document CHEMBL5365483, “Structure-Based Drug Design of Novel Triaminotriazine Derivatives as Orally Bioavailable IDH2R140Q Inhibitors with High Selectivity and Reduced hERG Inhibitory Activity for the Treatment of Acute Myeloid Leukemia” (J Med Chem, 2023)

Key:
[1] = in vitro; conditions: mouse, liver microsomes
[2] = in vitro; conditions: human, liver microsomes
[3] = in vitro; conditions: mouse, liver microsomes; remark: listed apart in the source
[4] = in vitro; conditions: human, liver microsomes; remark: listed apart in the source
[5] = in vivo; conditions: BALB/c, mouse, iv, 5 mg/kg
[6] = in vivo; conditions: BALB/c, mouse, iv, 5 mg/kg; remark: listed apart in the source
[7] = in vivo; conditions: BALB/c, mouse, po, 25 mg/kg
[8] = in vivo; conditions: BALB/c, mouse, iv, 5 mg/kg; remark: listed apart in the source
[9] = in vivo; conditions: BALB/c, mouse, iv, 5 mg/kg; remark: listed apart in the source
[10] = in vivo; conditions: BALB/c, mouse, po, 25 mg/kg; remark: listed apart in the source
[11] = in vivo; conditions: BALB/c, mouse, po, 25 mg/kg; remark: listed apart in the source
[12] = in vivo; conditions: BALB/c, mouse, iv, 5 mg/kg; remark: listed apart in the source
[13] = in vivo; conditions: BALB/c, mouse, po, 25 mg/kg; remark: listed apart in the source
[14] = in vivo; conditions: BALB/c, mouse, po, 25 mg/kg; remark: listed apart in the source

| SMILES | half-life at 1 h, 1 µM [1] | CLint scaled at 1 h, 1 µM [2] | CLint scaled at 1 h, 1 µM [3] | half-life at 1 h, 1 µM [4] | MRT at 24 h [5] | half-life at 24 h [6] | bioavailability at 72 h [7] | Cmax at 24 h [8] | clearance at 24 h [9] | half-life at 72 h [10] | MRT at 72 h [11] | AUC(0-inf) at 24 h [12] | Cmax at 72 h [13] | AUC(0-inf) at 72 h [14] |
| --- | --- | --- | --- | --- | --- | --- | --- | --- | --- | --- | --- | --- | --- | --- |
| O=C(O)Cc1ccccc1Nc1c(Cl)cccc1Cl [DICLOFENAC] | 24.1 min | 302 mL/min/kg | 226 mL/min/kg | 5.3 min | – | – | – | – | – | – | – | – | – | – |
| CC(C)(O)CNc1nc(Nc2ccnc(C(F)(F)F)c2)nc(-c2cccc(C(F)(F)F)n2)n1 [ENASIDENIB] | – | – | – | – | 4.9 h | 163 min | 125% | 2840 ng/mL | 5.99 mL/min/kg | 419 min | 7.45 h | 14000 ng·h/mL | 6390 ng/mL | 87600 ng·h/mL |
| CCOc1ccc(NC(C)=O)cc1 [PHENACETIN] | 3.4 min | 23.6 mL/min/kg | 1590 mL/min/kg | 67.9 min | – | – | – | – | – | – | – | – | – | – |
